# Activity calls are given as the source filed them.
# Tests used:
# Candida albicans [1] = experiment: growth inhibition of azole-resistant C. albicans, dose response, CaCi-8 strain, Alamar Blue, dry powder, set 3 (AID 488905); type: functional, organism-based
# Candida albicans [2] = experiment: reversal of fluconazole resistance in C. albicans, dose response, CaCi-2 strain, Alamar Blue, dry powder, set 3 (AID 488907); type: functional, organism-based
# BJ [3] = experiment: cytotoxicity toward BJ-TERT fibroblasts, dose response, cell-based, RAS-independent, luminescence (AID 1933); type: functional; conditions: Homo sapiens
# BJ [4] = experiment: cells; type: functional, cell-based; conditions: Homo sapiens
# BJ [5] = experiment: cytotoxicity toward BJ-TERT-LT-ST fibroblasts, dose response, cell-based, RAS-independent, luminescence (AID 1935); type: functional; conditions: Homo sapiens;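 note: BJ fibroblasts immortalized with TERT plus LT and ST oncogenes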
# [6] = cytotoxicity toward DRD oncogenic fibroblasts, dose response, cell-based, non-viral oncogenic, luminescence (AID 1934); type: functional; conditions: Homo sapiens
# HEK293 [7] = experiment: inhibitors of LMP1-driven NF-kB reporter, dose response, cell-based, HEK293, luciferase, cherry-pick (AID 588343); type: functional; conditions: Homo sapiens
# [8] = target: T1, Replicative DNA helicase DnaB (Mycobacterium tuberculosis, UniProt P9WMR3); experiment: DnaB intein splicing inhibitors, dose response, biochemical, cell-free fluorescence (AID 449749); type: functional
# T1 sequence (P9WMR3 whole entry): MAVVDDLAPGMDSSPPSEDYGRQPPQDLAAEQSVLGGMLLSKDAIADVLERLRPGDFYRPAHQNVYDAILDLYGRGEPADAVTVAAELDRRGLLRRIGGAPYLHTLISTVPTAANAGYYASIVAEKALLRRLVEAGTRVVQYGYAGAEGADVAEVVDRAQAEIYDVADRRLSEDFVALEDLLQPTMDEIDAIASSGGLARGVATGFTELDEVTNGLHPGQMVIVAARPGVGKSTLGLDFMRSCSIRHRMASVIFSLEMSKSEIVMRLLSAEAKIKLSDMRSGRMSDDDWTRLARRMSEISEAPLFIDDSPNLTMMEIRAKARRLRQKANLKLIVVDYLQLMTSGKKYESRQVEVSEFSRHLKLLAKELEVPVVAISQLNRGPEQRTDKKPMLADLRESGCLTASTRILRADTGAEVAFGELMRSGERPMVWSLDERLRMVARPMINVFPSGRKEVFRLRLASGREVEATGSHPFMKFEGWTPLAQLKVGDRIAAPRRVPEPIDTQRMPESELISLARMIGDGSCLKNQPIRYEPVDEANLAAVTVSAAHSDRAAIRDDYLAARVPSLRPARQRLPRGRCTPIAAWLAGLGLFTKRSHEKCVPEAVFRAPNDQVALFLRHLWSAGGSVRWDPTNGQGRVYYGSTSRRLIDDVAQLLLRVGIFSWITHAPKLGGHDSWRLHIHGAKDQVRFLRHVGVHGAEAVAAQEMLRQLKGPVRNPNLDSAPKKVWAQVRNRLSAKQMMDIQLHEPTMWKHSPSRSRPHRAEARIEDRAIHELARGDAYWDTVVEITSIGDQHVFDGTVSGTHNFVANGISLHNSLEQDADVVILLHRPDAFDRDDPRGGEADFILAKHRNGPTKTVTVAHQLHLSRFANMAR
# BJ [9] = experiment: cytotoxicity toward Ras-transformed BJeLR fibroblasts, dose response, cell-based, alamar blue fluorescence, cherrypicked samples (AID 2631); type: functional; conditions: Homo sapiens;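 note: confirmatory dose-response assay in RAS-dependent BJ fibroblasts engineered with TERT, LT and ST, with cytotoxicity read by fluorescence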
# Protein RecA = target: T2, Protein RecA (Mycobacterium tuberculosis, UniProt P9WHJ3); experiment: Fluorescence Cell-Free Homogeneous Dose Retest to Identify Inhibitors of RecA-Intein Splicing Activity. [Related pubchem assays (depositor defined):AID2097, AID2223, AID489010, AID492950]; type: functional
# T2 sequence (P9WHJ3 whole entry): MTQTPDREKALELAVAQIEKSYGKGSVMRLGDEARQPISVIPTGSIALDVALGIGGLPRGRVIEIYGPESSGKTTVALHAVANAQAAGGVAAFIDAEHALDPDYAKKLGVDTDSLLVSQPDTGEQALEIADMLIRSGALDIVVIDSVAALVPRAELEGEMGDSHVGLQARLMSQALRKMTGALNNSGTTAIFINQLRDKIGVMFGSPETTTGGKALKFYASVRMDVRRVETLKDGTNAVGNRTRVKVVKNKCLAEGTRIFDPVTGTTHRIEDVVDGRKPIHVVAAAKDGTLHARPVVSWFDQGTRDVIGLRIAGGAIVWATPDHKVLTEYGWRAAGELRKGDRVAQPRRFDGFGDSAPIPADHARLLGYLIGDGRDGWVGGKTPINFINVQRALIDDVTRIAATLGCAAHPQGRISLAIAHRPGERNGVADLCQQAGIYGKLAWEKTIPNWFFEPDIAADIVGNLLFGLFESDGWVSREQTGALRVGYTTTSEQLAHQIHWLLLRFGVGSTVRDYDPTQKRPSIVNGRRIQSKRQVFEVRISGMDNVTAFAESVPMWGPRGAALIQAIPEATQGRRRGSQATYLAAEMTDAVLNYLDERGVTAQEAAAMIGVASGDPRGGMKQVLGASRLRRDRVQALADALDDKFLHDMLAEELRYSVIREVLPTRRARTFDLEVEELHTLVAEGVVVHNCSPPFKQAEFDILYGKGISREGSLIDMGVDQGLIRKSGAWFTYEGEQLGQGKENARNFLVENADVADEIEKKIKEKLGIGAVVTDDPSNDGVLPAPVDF
# INS1 = experiment: beta cell apoptosis inhibitors, cytokine rescue, dose response, luminescence, retest (AID 449756); type: functional, cell-based; conditions: Rattus norvegicus;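 note: cell death triggered by IL-1 beta plus TNF-alpha plus IFN-gamma mixture; protective hits raise ATP signal compared with cytokine alone wells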
# Galanin receptor type 3 = Galanin receptor type 3 (Homo sapiens, UniProt O60755); experiment: Fluorescence-based cell-based primary high throughput dose response assay to identify antagonists of the Galanin Receptor 3 (GalR3).; type: functional
# Galanin receptor type 3, sequence (O60755 whole entry): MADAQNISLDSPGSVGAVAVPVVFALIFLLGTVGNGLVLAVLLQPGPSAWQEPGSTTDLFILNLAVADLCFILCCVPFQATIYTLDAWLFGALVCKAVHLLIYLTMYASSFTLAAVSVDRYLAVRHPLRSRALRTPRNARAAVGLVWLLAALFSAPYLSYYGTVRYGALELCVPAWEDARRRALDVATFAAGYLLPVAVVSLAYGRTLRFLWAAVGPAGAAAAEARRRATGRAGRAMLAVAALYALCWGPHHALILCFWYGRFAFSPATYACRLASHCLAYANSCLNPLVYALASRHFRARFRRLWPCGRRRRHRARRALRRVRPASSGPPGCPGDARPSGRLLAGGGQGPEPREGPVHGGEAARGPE
# cells [10] = type: functional, cell-based; conditions: HEK-CNG
# Paired box protein Pax-8 = Paired box protein Pax-8 (Homo sapiens, UniProt Q06710); experiment: inhibitors of PAX8-driven TPO luciferase reporter, dose response, RMG-I cells, cherry-pick (AID 687027); type: functional, cell-based;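 note: luciferase reporter driven by Pax8 target thyroperoxidase promoter measured by SteadyGlo luminescence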
# Paired box protein Pax-8, sequence (Q06710 whole entry): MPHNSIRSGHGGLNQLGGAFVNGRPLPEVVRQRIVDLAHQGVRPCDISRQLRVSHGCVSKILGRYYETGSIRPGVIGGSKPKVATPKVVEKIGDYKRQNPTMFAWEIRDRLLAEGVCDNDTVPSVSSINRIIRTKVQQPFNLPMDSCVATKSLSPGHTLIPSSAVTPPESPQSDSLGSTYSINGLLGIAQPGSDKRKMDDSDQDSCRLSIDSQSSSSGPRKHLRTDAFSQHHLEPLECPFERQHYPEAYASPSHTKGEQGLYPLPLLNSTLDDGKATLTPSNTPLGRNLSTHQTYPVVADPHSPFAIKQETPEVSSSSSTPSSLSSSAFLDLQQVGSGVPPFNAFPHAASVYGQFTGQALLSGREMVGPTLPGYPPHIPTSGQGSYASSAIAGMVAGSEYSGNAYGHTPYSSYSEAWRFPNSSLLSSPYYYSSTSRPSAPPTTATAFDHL
# cells [11] = type: functional, cell-based
# [12] = inhibitors of intracellular T. cruzi replication, confirmation, NIH3T3 host cells, beta-gal luminescence (AID 2044); type: functional, cell-based;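 note: intracellular parasites grown in NIH/3T3 mouse fibroblasts as host cells; luminescent beta-galactosidase reporter signal from transgenic T. cruzi replicating inside host cells; inhibitors lower the luminescence signal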
# [13] = Luminescence-based dose response cell-based high throughput screening assay for cytotoxic compounds using the IEC-6 intestinal epithelial cell line. [Related pubchem assays: 1858 (Summary AID.), 1825 (Counterscreen.), 1907 (Confirmation screen.)]; type: functional
# cells [14] = type: functional, cell-based; remark: listed apart in the source
# [15] = cytotoxicity toward NIH3T3 fibroblasts, dose response, counter-screen, cell-based, ATP luminescence, mouse fibroblasts (AID 2010); type: functional;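 note: cells exposed to compound for about 90 hours before reading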
# Exodeoxyribonuclease V = Exodeoxyribonuclease V (Escherichia coli (strain K12), UniProt P04993+P07648+P08394); experiment: E. coli RecBCD inhibitors, dose response, counter-screen for AddAB inhibitor project, absorbance, V66 E. coli, mutant T4 phage (AID 492957); type: functional, cell-based, Escherichia coli str. K-12 substr. MG1655
# Exodeoxyribonuclease V, sequence (P04993 whole entry): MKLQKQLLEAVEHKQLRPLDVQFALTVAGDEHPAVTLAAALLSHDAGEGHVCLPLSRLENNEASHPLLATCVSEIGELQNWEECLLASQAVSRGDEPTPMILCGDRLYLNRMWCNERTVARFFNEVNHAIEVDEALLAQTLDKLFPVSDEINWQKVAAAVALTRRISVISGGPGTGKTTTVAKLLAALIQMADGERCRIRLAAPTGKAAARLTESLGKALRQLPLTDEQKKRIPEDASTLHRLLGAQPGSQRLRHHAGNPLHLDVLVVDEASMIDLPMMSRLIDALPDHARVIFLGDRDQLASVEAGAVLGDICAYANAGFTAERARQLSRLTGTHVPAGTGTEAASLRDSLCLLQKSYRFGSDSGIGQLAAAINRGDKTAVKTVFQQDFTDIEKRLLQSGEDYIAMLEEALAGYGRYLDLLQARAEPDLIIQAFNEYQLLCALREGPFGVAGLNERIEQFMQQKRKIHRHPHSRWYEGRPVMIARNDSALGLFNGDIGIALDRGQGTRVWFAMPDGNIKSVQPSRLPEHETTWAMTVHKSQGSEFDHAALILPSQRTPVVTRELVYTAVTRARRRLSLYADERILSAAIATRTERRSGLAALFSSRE
# Exodeoxyribonuclease V, sequence (P07648 whole entry): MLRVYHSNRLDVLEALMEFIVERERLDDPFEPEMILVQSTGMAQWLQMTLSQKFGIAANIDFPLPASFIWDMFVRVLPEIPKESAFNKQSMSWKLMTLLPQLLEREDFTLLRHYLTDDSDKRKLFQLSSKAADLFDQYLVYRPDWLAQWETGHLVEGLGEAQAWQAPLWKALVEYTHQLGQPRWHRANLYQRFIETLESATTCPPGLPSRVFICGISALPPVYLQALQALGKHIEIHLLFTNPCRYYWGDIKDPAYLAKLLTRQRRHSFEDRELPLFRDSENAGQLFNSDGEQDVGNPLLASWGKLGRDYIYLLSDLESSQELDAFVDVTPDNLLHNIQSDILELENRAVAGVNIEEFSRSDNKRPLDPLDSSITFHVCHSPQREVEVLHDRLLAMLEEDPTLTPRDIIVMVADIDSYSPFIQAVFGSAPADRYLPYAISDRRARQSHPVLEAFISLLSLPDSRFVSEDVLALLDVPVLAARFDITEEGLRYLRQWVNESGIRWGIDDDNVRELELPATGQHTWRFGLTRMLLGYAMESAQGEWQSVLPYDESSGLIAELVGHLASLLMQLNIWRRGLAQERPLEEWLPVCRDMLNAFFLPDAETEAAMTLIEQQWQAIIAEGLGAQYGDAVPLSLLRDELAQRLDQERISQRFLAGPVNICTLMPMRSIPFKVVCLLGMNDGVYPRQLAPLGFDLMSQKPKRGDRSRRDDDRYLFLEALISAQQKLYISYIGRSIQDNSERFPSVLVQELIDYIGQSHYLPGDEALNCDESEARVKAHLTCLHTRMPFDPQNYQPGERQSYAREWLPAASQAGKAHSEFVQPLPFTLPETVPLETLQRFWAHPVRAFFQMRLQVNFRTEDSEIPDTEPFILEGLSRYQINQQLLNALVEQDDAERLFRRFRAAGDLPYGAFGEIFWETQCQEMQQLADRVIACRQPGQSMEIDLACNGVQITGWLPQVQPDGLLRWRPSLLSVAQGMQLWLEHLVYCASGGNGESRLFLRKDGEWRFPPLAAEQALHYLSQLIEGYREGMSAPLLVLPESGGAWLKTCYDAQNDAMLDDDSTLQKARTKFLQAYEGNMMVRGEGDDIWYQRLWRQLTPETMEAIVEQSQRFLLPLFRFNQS
# Exodeoxyribonuclease V, sequence (P08394 whole entry): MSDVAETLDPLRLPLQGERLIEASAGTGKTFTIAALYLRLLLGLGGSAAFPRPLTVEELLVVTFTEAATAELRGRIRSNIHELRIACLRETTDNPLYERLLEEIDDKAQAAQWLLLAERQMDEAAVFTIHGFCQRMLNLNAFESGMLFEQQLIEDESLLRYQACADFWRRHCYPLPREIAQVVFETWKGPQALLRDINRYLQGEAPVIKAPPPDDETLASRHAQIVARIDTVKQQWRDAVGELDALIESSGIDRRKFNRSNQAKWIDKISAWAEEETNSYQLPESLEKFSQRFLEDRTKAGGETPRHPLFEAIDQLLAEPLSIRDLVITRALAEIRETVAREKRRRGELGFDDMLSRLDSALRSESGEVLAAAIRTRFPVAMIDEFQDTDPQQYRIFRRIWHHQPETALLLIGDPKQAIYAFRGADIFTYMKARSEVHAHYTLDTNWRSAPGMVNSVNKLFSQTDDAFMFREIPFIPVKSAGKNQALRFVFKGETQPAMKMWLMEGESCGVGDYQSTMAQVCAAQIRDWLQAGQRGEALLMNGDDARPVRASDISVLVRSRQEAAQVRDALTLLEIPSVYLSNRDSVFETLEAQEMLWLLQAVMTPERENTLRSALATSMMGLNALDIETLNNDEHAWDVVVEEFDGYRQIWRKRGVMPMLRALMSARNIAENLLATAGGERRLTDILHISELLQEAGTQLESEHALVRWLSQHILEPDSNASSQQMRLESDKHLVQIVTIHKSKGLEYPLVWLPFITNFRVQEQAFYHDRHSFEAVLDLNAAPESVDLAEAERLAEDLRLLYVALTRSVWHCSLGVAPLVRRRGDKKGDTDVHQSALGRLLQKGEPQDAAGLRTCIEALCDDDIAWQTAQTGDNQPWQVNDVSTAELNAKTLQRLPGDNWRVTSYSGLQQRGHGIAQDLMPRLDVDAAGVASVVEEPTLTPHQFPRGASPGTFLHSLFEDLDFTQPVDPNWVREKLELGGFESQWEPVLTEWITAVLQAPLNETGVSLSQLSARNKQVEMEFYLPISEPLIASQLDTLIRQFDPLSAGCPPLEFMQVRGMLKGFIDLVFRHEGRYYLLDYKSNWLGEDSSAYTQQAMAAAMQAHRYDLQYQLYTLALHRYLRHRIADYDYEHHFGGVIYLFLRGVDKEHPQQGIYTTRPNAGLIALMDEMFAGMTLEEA
# [16] = cytotoxicity in HEK-293T cells, dose response, cytotoxicity control for TCR NF-kB inhibitor project, luminescence, T-cell screen hits (AID 489026); type: functional, cell-based;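 note: cells exposed to compound about 14 hours before the viability readout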
# [17] = Counterscreen for AddAB inhibitors: absorbance-based bacterial cell-based high throughput dose response assay for inhibitors of bacterial viability. [Related pubchem assays (depositor defined):AID435030, AID449728, AID449731, AID488942, AID488955, AID488956]; type: functional
# [18] = target: Heat shock protein HSP 90-alpha (Homo sapiens, UniProt P07900); type: functional, organism-based
# HEK293 [19] = experiment: cytotoxicity in HEK293T NF-kB-Luc cells, SAR follow-up, cytotoxicity control for NF-kB activator project, cell-based, resazurin fluorescence (AID 493251); type: functional; conditions: Homo sapiens
# Jurkat = experiment: SAR Analysis of small molecule inhibitors of T-cell specific antigen receptor-induced NF-kB activation in a Jurkat cell line using a luminescence assay - Set 2. [Related pubchem assays (depositor defined):AID435003, AID435012, AID465]; type: functional, cell-based; conditions: Homo sapiens
# HEK293 [20] = experiment: SAR Analysis of small molecule inhibitors of T-cell specific antigen receptor-induced NF-kB activation in a HEK-293T cell line using a luminescence assay - Set 2. [Related pubchem assays (depositor defined):AID435003, AID435012, AID489026]; type: functional, cell-based; conditions: Homo sapiens
# [21] = Shn3 3'UTR reporter inhibitors, dose response, cell-based, Clone20 osteoblasts, firefly luciferase, cherry-picked (AID 624132); type: functional;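 note: firefly luciferase luminescence from reporter carrying the Shn3 3'UTR in osteoblasts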
# [22] = HepG2 cell cytotoxicity, dose response, cytotoxicity control for Shn3 inhibitor project, CellTiter-Glo, cherry-picked (AID 624134); type: functional, cell-based
# [23] = control 3'UTR Renilla luciferase suppression, dose response, counter-screen for Shn3 inhibitor project, cell-based, Clone20-Shn3RL, cherry-picked (AID 624133); type: functional
smiles,measurement,setting,value
O=C(c1ccc(Cl)cc1)N1CCN(c2nc3ccccc3s2)CC1,AC50,Candida albicans [1],0.565 µM (active)
same,AC50,Candida albicans [2],1.41 µM (active)
N#CC(C#N)=NNc1ccc(-n2ccc(C(F)(F)F)n2)cc1,EC50,BJ [3],13.6 µM (inconclusive)
same,EC50,BJ [4],11.4 µM (active)
same,EC50,BJ [5],> 150 µM (not active)
same,EC50,[6],18.2 µM (inconclusive)
same,AC50,HEK293 [7],3.38 µM (active)
same,AC50,[8],2.03 µM (active)
same,EC50,BJ [9],> 133 µM (inactive)
same,EC50,Protein RecA,2.98 µM (active)
same,AC50,INS1,5.57 µM (active)
same,IC50,Galanin receptor type 3,> 1.11 µM (active)
same,EC50,cells [10],> 29.9 µM (inactive)
same,AC50,Paired box protein Pax-8,3.44 µM (active)
CC(=O)NC(c1ccc(C(C)C)cc1)c1ccc2cccnc2c1O (stereo unspecified),EC50,BJ [3],0.958 µM (active)
same,EC50,cells [11],3.64 µM (active)
same,EC50,BJ [4],2.29 µM (inconclusive)
same,EC50,[12],0.337 µM (active)
same,IC50,[13],1.36 µM (active)
same,EC50,cells [14],> 350 µM (not active)
same,EC50,[15],0.424 µM (active)
same,EC50,BJ [5],8.47 µM (inconclusive)
same,EC50,[6],8.18 µM (inconclusive)
same,IC50,Exodeoxyribonuclease V,> 118 µM (inactive)
same,IC50,[16],> 80 µM (inactive)
same,IC50,[17],> 118 µM (inactive)
same,AC50,HEK293 [7],5.2 µM (active)
same,AC50,[18],3.58 µM (active)
same,IC50,HEK293 [19],56.1 µM (inactive)
same,IC50,Jurkat,2.6 µM (active)
same,IC50,HEK293 [20],5.24 µM (active)
same,AC50,INS1,0.494 µM (active)
same,AC50,[21],0.528 µM (active)
same,AC50,[22],1.3 µM (active)
same,AC50,[23],0.35 µM (active)
same,AC50,Paired box protein Pax-8,2.03 µM (active)
